# Experiments:
# [1] = tested on: Homo sapiens; experiment: Renal clearance in healthy human assessed as paracetamol sulfate level at 20 mg/kg; assay type: ADME, organism-based, Kidney; settings: in vivo
# [2] = tested on: Homo sapiens; experiment: Renal clearance in healthy human assessed as paracetamol glucuronide level at 20 mg/kg; assay type: ADME, organism-based, Kidney; settings: in vivo
# [3] = tested on: Homo sapiens; experiment: Drug recovery in poisoned human patient (8 patients) with severe liver damage receiving NAC treatment assessed as glucuronide conjugate level at 20 mg/kg, po; assay type: ADME, organism-based; settings: in vivo
# [4] = tested on: Homo sapiens; experiment: Drug recovery in poisoned human patient (9 patients) without liver damage receiving supportive treatment assessed as sulphate conjugate level at 20 mg/kg, po; assay type: ADME, organism-based; settings: in vivo
# [5] = tested on: Homo sapiens; experiment: Drug recovery in poisoned human patient (8 patients) with severe liver damage receiving supportive treatment assessed as mercapturate plus cysteine conjugate level at 20 mg/kg, po; assay type: ADME, organism-based; settings: in vivo
# [6] = Volume of distribution at central compartment in healthy adult male human subject at 12 mg/kg, iv; settings: in vivo
# [7] = tested on: Homo sapiens; experiment: Drug recovery in poisoned human patient (8 patients) with severe liver damage receiving NAC treatment assessed as sulphate conjugate level at 20 mg/kg, po; assay type: ADME, organism-based; settings: in vivo
# [8] = Systemic availability in human; assay type: ADME, organism-based; settings: in vivo
# [9] = tested on: Homo sapiens; experiment: Drug recovery in poisoned human patient (3 patients) with severe liver damage receiving methionine treatment assessed as mercapturate plus cysteine conjugate level at 20 mg/kg, po; assay type: ADME, organism-based; settings: in vivo
# [10] = tested on: Homo sapiens; experiment: Drug recovery in poisoned human patient (8 patients) with severe liver damage receiving supportive treatment assessed as sulphate conjugate level at 20 mg/kg, po; assay type: ADME, organism-based; settings: in vivo
# [11] = tested on: Homo sapiens; experiment: Mean drug recovery in poisoned human patient (3 patients) with severe liver damage receiving methionine treatment at 20 mg/kg, po; assay type: ADME, organism-based; settings: in vivo
# [12] = tested on: Homo sapiens; experiment: Drug recovery in poisoned human patient (8 patients) with severe liver damage receiving NAC treatment assessed as mercapturate plus cysteine conjugate level at 20 mg/kg, po; assay type: ADME, organism-based; settings: in vivo
# [13] = tested on: Homo sapiens; experiment: Mean drug recovery in poisoned human patient (23 patients) without liver damage receiving NAC treatment at 20 mg/kg, po; assay type: ADME, organism-based; settings: in vivo
# [14] = tested on: Homo sapiens; experiment: Drug recovery in poisoned human patient (8 patients) without liver damage receiving methionine treatment assessed as glucuronide conjugate level at 20 mg/kg, po; assay type: ADME, organism-based; settings: in vivo
# [15] = Drug excretion in urine of healthy young adult human assessed as unchanged parent drug level after 24 hrs; assay type: ADME; settings: read-out: Drug excretion
# [16] = Drug excretion in urine of human at 20 mg/kg assessed as mercapturic conjugate level after 24 hrs; assay type: ADME, organism-based; settings: in vivo
# [17] = tested on: Homo sapiens; experiment: Distribution half life in healthy adult male human subject at 12 mg/kg, iv; assay type: ADME, organism-based; settings: in vivo
# [18] = tested on: Homo sapiens; experiment: Drug recovery in poisoned human patient (8 patients) without liver damage receiving methionine treatment assessed as sulphate conjugate level at 20 mg/kg, po; assay type: ADME, organism-based; settings: in vivo
# [19] = Half life in healthy young adult human; assay type: ADME, organism-based; settings: in vivo
# [20] = tested on: Homo sapiens; experiment: Drug recovery in poisoned human patient (23 patients) without liver damage receiving NAC treatment assessed as sulphate conjugate level at 20 mg/kg, po; assay type: ADME, organism-based; settings: in vivo
# [21] = tested on: Homo sapiens; experiment: Drug recovery in poisoned human patient (15 patients) without liver damage receiving cysteamine treatment assessed as sulphate conjugate level at 20 mg/kg, po; assay type: ADME, organism-based; settings: in vivo
# [22] = Apparent volume of distribution in human; settings: in vivo
# [23] = Elimination half life in healthy adult male human subject at 12 mg/kg, po; assay type: ADME, organism-based; settings: in vivo, read-out: beta t1/2 (converted)
# [24] = tested on: Homo sapiens; experiment: Mean drug recovery in poisoned human patient (9 patients) without liver damage receiving supportive treatment at 20 mg/kg, po; assay type: ADME, organism-based; settings: in vivo
# [25] = tested on: Homo sapiens; experiment: Drug recovery in poisoned human patient (23 patients) without liver damage receiving NAC treatment assessed as mercapturate plus cysteine conjugate level at 20 mg/kg, po; assay type: ADME, organism-based; settings: in vivo
# [26] = tested on: Homo sapiens; experiment: Drug recovery in poisoned human patient (15 patients) without liver damage receiving cysteamine treatment assessed as mercapturate plus cysteine conjugate level at 20 mg/kg, po; assay type: ADME, organism-based; settings: in vivo
# [27] = tested on: Homo sapiens; experiment: Mean drug recovery in poisoned human patient (8 patients) without liver damage receiving methionine treatment at 20 mg/kg, po; assay type: ADME, organism-based; settings: in vivo
# [28] = tested on: Homo sapiens; experiment: Mean drug recovery in poisoned human patient (8 patients) with severe liver damage receiving NAC treatment at 20 mg/kg, po; assay type: ADME, organism-based; settings: in vivo
# [29] = tested on: Homo sapiens; experiment: Mean drug recovery in poisoned human patient (15 patients) without liver damage receiving cysteamine treatment at 20 mg/kg, po; assay type: ADME, organism-based; settings: in vivo
# [30] = Volume of distribution in 70 kg adult human at 12 mg/kg, iv infused over 2 mins; settings: in vivo
# [31] = Half life in elderly human; assay type: ADME, organism-based; settings: in vivo
# [32] = tested on: Homo sapiens; experiment: Drug recovery in healthy human subjects (8 subjects) assessed as sulphate conjugate level at 20 mg/kg, po; assay type: ADME, organism-based; settings: in vivo
# [33] = tested on: Homo sapiens; experiment: Mean drug recovery in poisoned human patient (8 patients) with severe liver damage receiving supportive treatment at 20 mg/kg, po; assay type: ADME, organism-based; settings: in vivo
# [34] = Elimination half life in healthy adult male human subject at 12 mg/kg, iv; assay type: ADME, organism-based; settings: in vivo, read-out: beta t1/2 (converted)
# [35] = tested on: Homo sapiens; experiment: Drug recovery in poisoned human patient (3 patients) with severe liver damage receiving methionine treatment assessed as glucuronide conjugate level at 20 mg/kg, po; assay type: ADME, organism-based; settings: in vivo
# [36] = tested on: Homo sapiens; experiment: Drug recovery in healthy human subjects (8 subjects) assessed as glucuronide conjugate level at 20 mg/kg, po; assay type: ADME, organism-based; settings: in vivo
# [37] = tested on: Homo sapiens; experiment: Drug recovery in healthy human subjects (8 subjects) assessed as mercapturate plus cysteine conjugate level at 20 mg/kg, po; assay type: ADME, organism-based; settings: in vivo
# [38] = tested on: Homo sapiens; experiment: Drug recovery in poisoned human patient (9 patients) without liver damage receiving supportive treatment assessed as mercapturate plus cysteine conjugate level at 20 mg/kg, po; assay type: ADME, organism-based; settings: in vivo
# [39] = Systemic availability in healthy adult male human subject at 12 mg/kg, po; assay type: ADME, organism-based; settings: in vivo
# [40] = tested on: Homo sapiens; experiment: Drug recovery in poisoned human patient (8 patients) without liver damage receiving methionine treatment assessed as mercapturate plus cysteine conjugate level at 20 mg/kg, po; assay type: ADME, organism-based; settings: in vivo
# [41] = tested on: Homo sapiens; experiment: Drug recovery in poisoned human patient (23 patients) without liver damage receiving NAC treatment assessed as glucuronide conjugate level at 20 mg/kg, po; assay type: ADME, organism-based; settings: in vivo
# [42] = tested on: Homo sapiens; experiment: Drug recovery in poisoned human patient (9 patients) without liver damage receiving supportive treatment assessed as glucuronide conjugate level at 20 mg/kg, po; assay type: ADME, organism-based; settings: in vivo
# [43] = tested on: Homo sapiens; experiment: Drug recovery in poisoned human patient (15 patients) without liver damage receiving cysteamine treatment assessed as glucuronide conjugate level at 20 mg/kg, po; assay type: ADME, organism-based; settings: in vivo
# [44] = tested on: Homo sapiens; experiment: Drug recovery in poisoned human patient (3 patients) with severe liver damage receiving methionine treatment assessed as sulphate conjugate level at 20 mg/kg, po; assay type: ADME, organism-based; settings: in vivo
# [45] = Drug excretion in urine of healthy young adult human assessed as glucuronide conjugate level after 24 hrs; assay type: ADME; settings: in vivo
# [46] = Drug excretion in human urine assessed as unchanged parent compound level; assay type: ADME; settings: read-out: Drug excretion
# [47] = tested on: Homo sapiens; experiment: Drug recovery in poisoned human patient (8 patients) with severe liver damage receiving supportive treatment assessed as glucuronide conjugate level at 20 mg/kg, po; assay type: ADME, organism-based; settings: in vivo
# [48] = Volume of distribution at central and peripheral compartment in healthy adult male human subject at 12 mg/kg, iv; settings: in vivo
# [49] = Drug excretion in urine of healthy young adult human assessed as sulphate conjugate level after 24 hrs; assay type: ADME; settings: in vivo
# [50] = Half life in human; assay type: ADME, organism-based; settings: in vivo
compound,measurement,setting,value
CC(=O)Nc1ccc(OS(=O)(=O)O)cc1,CL,[1],166 mL/min
CC(=O)Nc1ccc(O[C@@H]2O[C@H](C(=O)O)[C@@H](O)[C@H](O)[C@H]2O)cc1 [ACETAMINOPHEN GLUCURONIDE],CL,[2],130 mL/min
CC(=O)Nc1ccc(O)cc1 [ACETAMINOPHEN],Drug recovery,[3],60.9%
same,Drug recovery,[4],9.3%
same,Drug recovery,[5],15.2%
same,Vd,[6],0.509 L/kg
same,Drug recovery,[7],13.3%
same,bioavailability,[8],75%
same,Drug recovery,[9],13.8%
same,Drug recovery,[10],9.7%
same,Drug recovery,[11],13.7 g
same,Drug recovery,[12],16.5%
same,Drug recovery,[13],13.4 g
same,Drug recovery,[14],73.9%
same,dose excreted at 24 h,[15],4%
same,Drug excretion,[16],4%
same,alphat1/2,[17],0.13 h
same,Drug recovery,[18],10.1%
same,half-life,[19],120 min
same,Drug recovery,[20],14.5%
same,Drug recovery,[21],11.9%
same,Vd,[22],0.9 L/kg
same,half-life,[23],118 min
same,Drug recovery,[24],10.3 g
same,Drug recovery,[25],10.6%
same,Drug recovery,[26],6.4%
same,Drug recovery,[27],14.5 g
same,Drug recovery,[28],13 g
same,Drug recovery,[29],14.5 g
same,Vd at 2 min,[30],65 L
same,half-life,[31],130 min
same,Drug recovery,[32],32.3%
same,Drug recovery,[33],11.8 g
same,half-life,[34],119 min
same,Drug recovery,[35],68.9%
same,Drug recovery,[36],54.7%
same,Drug recovery,[37],8%
same,Drug recovery,[38],6.9%
same,bioavailability,[39],76%
same,Drug recovery,[40],8.1%
same,Drug recovery,[41],63.6%
same,Drug recovery,[42],75.3%
same,Drug recovery,[43],72.4%
same,Drug recovery,[44],9.1%
same,Drug excretion,[45],55%
same,dose excreted,[46],2%
same,Drug recovery,[47],66.5%
same,Vd,[48],0.897 L/kg
same,Drug excretion,[49],30%
CCOc1ccc(NC(C)=O)cc1 [PHENACETIN],half-life,[50],60 min
same,dose excreted,[46],< 0.5%
